Data taken from paper PMC4175002, “The Design and Synthesis of Potent and Selective Inhibitors of Trypanosoma brucei Glycogen Synthase Kinase 3 for the Treatment of Human African Trypanosomiasis” (Journal of Medicinal Chemistry, 2014).

Columns and labels:
Assay in all cases: Mammalian kinase profiling (DSTT panel)
Conditions in all cases: 10 μM; average percentage of remaining activity
[1] = biological target: T1, MNK1 (Homo sapiens, UniProt Q9BUB5); type: biochemical
T1 construct: purchased Division of Signal Transduction Therapy (DSTT), University of Dundee
Description: (§1) To assess the selectivity of the aminopyrazole inhibitors, remaining activity at 10 μM concentration was measured for compounds 4f, 4m, and 4y against a panel of 80 human PKs and for compound 9g against 124 human PKs. […] Compound 4m inhibited only two PKs, namely GSK3β and CDK2, at more than 80%.
(§2) Selected compounds were screened against a panel of mammalian kinases routinely run by the Division of Signal Transduction Therapy (DSTT) at the University of Dundee in duplicate at 10 μM.[32] Enzymes included in the panel and assay conditions are reported in the literature. All biochemical assays are run below the Km^app for the ATP for each enzyme, allowing comparison of inhibition across the panel.

[2] = biological target: T2, ROCK2 (Homo sapiens, UniProt O75116); type: biochemical
T2 construct: purchased Division of Signal Transduction Therapy (DSTT), University of Dundee
Description: as §1, §2

[3] = biological target: T3, IR-HIS (Homo sapiens, UniProt P06213); type: biochemical
T3 construct: purchased Division of Signal Transduction Therapy (DSTT), University of Dundee
Description: as §1, §2

[4] = biological target: T4, CK2 (Homo sapiens, UniProt P68400); type: biochemical
T4 construct: purchased Division of Signal Transduction Therapy (DSTT), University of Dundee
Description: as §1, §2

[5] = biological target: T5, PKCa (Homo sapiens, UniProt P17252); type: biochemical
T5 construct: purchased Division of Signal Transduction Therapy (DSTT), University of Dundee
Description: as §1, §2

[6] = biological target: T6, VEG-FR (Homo sapiens, UniProt P17948); type: biochemical
T6 construct: purchased Division of Signal Transduction Therapy (DSTT), University of Dundee
Description: as §1, §2

[7] = biological target: T7, SYK (Homo sapiens, UniProt P43405); type: biochemical
T7 construct: purchased Division of Signal Transduction Therapy (DSTT), University of Dundee
Description: as §1, §2

[8] = biological target: T8, EPH-B3 (Homo sapiens, UniProt P54753); type: biochemical
T8 construct: purchased Division of Signal Transduction Therapy (DSTT), University of Dundee
T8 sequence (P54753 34-998): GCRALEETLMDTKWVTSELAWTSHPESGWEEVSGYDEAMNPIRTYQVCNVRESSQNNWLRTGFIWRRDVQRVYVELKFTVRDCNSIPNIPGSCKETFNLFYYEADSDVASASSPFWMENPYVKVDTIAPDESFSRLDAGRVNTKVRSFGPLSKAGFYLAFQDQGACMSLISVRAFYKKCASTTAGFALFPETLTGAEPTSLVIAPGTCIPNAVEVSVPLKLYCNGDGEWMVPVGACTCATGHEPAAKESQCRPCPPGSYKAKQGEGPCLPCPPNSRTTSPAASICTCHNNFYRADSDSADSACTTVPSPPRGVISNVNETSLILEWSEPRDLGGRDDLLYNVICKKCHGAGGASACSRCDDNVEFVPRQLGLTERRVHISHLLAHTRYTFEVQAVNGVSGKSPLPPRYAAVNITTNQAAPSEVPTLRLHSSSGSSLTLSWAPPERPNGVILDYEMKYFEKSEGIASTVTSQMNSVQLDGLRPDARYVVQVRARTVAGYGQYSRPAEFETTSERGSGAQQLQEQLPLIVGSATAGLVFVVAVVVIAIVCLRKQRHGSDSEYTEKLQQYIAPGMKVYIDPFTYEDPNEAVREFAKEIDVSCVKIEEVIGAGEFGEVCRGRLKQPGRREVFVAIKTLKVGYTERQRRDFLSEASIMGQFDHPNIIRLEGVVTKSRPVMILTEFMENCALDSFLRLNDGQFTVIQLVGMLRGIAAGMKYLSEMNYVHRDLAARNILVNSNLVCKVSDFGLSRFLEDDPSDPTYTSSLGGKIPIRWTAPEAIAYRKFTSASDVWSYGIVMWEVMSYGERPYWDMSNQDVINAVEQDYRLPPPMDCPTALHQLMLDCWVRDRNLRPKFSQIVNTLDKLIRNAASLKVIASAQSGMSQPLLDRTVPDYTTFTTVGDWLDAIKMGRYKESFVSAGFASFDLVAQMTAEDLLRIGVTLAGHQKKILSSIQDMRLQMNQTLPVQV
Description: as §1, §2

[9] = biological target: T9, CK1 (Homo sapiens, UniProt P48730); type: biochemical
T9 construct: purchased Division of Signal Transduction Therapy (DSTT), University of Dundee
Description: as §1, §2

[10] = biological target: T10, PKA (Homo sapiens, UniProt P17612); type: biochemical
T10 construct: purchased Division of Signal Transduction Therapy (DSTT), University of Dundee
Description: as §1, §2

[11] = system: AMPK; type: biochemical, human
Description: as §1, §2

T6 sequence (P17948 27-1338): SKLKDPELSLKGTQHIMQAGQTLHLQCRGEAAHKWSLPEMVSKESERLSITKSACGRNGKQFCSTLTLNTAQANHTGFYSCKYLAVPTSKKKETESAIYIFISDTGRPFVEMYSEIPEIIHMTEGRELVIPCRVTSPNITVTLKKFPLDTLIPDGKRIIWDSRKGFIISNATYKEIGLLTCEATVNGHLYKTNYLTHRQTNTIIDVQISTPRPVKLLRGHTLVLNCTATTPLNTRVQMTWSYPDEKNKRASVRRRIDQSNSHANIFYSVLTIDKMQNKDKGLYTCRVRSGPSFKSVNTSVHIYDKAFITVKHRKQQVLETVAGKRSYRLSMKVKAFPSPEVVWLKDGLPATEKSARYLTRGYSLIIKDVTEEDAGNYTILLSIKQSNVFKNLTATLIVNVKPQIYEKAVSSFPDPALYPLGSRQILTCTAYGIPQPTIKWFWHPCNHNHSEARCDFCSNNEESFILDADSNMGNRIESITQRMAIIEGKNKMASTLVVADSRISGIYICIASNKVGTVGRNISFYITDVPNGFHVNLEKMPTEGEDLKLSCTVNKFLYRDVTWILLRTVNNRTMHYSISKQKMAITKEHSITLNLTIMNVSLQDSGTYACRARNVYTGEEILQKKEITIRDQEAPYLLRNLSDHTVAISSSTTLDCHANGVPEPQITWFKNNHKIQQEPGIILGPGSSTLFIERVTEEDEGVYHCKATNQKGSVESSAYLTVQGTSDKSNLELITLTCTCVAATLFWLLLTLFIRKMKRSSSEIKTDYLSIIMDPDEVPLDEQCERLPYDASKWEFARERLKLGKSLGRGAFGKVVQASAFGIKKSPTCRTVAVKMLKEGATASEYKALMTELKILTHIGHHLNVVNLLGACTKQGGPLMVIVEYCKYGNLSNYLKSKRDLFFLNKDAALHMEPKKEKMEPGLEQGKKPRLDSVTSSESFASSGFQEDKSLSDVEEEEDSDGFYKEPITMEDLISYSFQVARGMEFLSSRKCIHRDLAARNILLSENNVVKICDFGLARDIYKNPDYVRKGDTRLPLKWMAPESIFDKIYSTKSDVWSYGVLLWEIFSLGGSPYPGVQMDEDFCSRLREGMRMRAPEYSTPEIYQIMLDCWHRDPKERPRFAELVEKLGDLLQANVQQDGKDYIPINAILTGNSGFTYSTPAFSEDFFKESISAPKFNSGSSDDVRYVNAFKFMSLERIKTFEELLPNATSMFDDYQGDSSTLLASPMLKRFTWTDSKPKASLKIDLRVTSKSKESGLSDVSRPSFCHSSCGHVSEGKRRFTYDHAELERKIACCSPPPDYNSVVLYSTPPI
T4 sequence (P68400 whole entry): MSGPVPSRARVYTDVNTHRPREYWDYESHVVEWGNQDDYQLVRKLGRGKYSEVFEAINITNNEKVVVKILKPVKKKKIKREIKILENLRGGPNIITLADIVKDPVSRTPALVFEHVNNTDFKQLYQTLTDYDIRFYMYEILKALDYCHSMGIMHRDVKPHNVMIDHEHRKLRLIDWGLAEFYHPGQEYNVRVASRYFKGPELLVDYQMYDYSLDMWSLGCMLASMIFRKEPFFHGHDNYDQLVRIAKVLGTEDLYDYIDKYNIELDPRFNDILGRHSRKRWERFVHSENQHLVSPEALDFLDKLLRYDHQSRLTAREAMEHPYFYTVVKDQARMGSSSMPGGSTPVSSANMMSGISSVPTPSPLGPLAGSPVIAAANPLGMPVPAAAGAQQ
T1 sequence (Q9BUB5 whole entry): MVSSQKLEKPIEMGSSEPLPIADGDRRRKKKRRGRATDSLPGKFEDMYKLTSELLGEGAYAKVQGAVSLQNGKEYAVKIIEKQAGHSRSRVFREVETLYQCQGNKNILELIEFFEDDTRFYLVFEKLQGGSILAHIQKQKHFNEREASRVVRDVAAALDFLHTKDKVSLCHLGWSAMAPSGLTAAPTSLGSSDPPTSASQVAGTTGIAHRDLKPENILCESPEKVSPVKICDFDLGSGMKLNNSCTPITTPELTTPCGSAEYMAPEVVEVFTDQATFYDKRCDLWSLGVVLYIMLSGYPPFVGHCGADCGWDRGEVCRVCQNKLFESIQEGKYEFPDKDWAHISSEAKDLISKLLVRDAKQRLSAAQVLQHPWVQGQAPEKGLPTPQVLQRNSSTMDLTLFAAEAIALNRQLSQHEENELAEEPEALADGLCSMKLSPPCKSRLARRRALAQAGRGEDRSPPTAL
T2 sequence (O75116 whole entry): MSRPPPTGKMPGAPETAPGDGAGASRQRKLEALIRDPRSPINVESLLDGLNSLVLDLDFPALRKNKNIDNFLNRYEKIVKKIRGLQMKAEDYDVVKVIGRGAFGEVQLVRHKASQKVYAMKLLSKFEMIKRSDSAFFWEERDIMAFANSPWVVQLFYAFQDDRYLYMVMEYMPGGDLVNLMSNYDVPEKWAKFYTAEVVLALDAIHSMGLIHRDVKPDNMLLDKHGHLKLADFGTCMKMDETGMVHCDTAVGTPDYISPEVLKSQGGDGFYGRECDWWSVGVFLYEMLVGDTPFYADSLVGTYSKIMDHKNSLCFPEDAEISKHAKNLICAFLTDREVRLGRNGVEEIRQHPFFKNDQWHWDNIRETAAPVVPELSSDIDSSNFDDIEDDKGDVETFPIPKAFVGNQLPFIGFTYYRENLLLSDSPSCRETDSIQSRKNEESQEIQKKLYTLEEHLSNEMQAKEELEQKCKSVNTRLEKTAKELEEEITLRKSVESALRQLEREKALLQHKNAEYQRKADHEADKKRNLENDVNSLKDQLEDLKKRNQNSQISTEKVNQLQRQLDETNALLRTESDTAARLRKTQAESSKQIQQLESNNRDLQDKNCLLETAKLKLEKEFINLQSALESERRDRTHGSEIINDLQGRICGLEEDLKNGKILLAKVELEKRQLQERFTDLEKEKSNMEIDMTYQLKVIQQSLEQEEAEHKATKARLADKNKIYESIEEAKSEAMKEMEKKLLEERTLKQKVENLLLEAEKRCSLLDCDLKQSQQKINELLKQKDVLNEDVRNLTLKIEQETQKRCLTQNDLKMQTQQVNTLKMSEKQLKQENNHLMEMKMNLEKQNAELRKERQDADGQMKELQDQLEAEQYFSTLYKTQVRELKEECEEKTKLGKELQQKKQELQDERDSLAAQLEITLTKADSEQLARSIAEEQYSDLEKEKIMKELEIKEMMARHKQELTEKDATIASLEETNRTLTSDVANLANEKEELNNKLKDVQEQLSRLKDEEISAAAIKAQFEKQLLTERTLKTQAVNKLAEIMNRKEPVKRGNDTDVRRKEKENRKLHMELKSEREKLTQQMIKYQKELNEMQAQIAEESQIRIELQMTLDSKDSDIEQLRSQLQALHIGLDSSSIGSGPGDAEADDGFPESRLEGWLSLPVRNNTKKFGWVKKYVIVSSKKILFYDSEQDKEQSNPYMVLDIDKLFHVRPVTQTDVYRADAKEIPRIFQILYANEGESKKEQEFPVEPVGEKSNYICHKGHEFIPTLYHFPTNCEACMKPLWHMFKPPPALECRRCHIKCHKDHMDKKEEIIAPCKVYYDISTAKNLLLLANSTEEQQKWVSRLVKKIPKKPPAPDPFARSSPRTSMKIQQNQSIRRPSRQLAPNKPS
T9 sequence (P48730 whole entry): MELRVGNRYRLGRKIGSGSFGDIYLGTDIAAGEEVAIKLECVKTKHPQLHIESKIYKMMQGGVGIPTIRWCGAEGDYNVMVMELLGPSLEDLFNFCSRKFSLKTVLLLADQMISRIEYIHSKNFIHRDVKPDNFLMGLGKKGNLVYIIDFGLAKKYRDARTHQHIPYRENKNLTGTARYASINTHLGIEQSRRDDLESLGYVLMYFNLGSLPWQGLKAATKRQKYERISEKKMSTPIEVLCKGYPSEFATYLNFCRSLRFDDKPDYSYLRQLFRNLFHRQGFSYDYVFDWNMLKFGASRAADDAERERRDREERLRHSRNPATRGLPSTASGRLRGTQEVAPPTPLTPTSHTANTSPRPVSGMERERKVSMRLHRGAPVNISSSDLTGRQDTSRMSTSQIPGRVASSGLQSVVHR

`CO[C@H]1CC[C@H](NC(=O)c2n[nH]cc2NC(=O)c2ccccc2)CC1` [Compound 4f, 4-Benzamido-N-(4-methoxycyclohexyl)-1H-pyrazole-3-carboxamide] was tested, and the “MNK1 activity compared to the control” value [1] was 76%, the “ROCK2 activity compared to the control” value [2] was 81% and the “IR-HIS activity compared to the control” value [3] was 84%. The “CK2 activity compared to the control” value [4] was 74%, the “PKCa activity compared to the control” value [5] was 49% and the “VEG-FR activity compared to the control” value [6] was 52%. The “SYK activity compared to the control” value [7] was 78%, the “EPH-B3 activity compared to the control” value [8] was 60% and the “CK1 activity compared to the control” value [9] was 55%. The “PKA activity compared to the control” value [10] was 81%.

With `COc1cccc(OC)c1C(=O)Nc1c[nH]nc1C(=O)NC1CCC(OC)CC1` (centres unmarked) [Compound 4m, 4-(2,6-Dimethoxybenzamido)-N-(4-methoxycyclohexyl)-1H-pyrazole-3-carboxamide] the “MNK1 activity compared to the control” value [1] was 81%, the “ROCK2 activity compared to the control” value [2] was 74% and the “IR-HIS activity compared to the control” value [3] was 99%. The “CK2 activity compared to the control” value [4] was 100%, the “PKCa activity compared to the control” value [5] was 90% and the “VEG-FR activity compared to the control” value [6] was 90%. For the same molecule, the “SYK activity compared to the control” value [7] was 100%, the “EPH-B3 activity compared to the control” value [8] was 100% and the “CK1 activity compared to the control” value [9] was 88%. The “PKA activity compared to the control” value [10] was 74% and the “AMPK activity compared to the control” value [11] was 88%.

With `CO[C@H]1CC[C@H](NC(=O)c2n[nH]cc2NC(=O)c2ccc(-c3ccccc3)o2)CC1` [Compound 4y, N-(4-Methoxycyclohexyl)-4-(5-phenylfuran-2-carboxamido)-1H-pyrazole-3-carboxamide] the “MNK1 activity compared to the control” value [1] was 82%, the “ROCK2 activity compared to the control” value [2] was 72% and the “IR-HIS activity compared to the control” value [3] was 50%. For the same molecule, the “CK2 activity compared to the control” value [4] was 21%, the “PKCa activity compared to the control” value [5] was 48% and the “VEG-FR activity compared to the control” value [6] was 29%. For the same molecule, the “SYK activity compared to the control” value [7] was 70%, the “EPH-B3 activity compared to the control” value [8] was 72% and the “CK1 activity compared to the control” value [9] was 25%. The “PKA activity compared to the control” value [10] was 76% and the “AMPK activity compared to the control” value [11] was 49%.
